Biological target: T1, visual cycle isomerase (Bovine RPE microsome membranes) (Bos taurus, UniProt Q28175)
T1 construct: Bovine Retinal Pigment Epithelium (RPE) microsome membranes were the source of a visual cycle isomerase; from tissue; host or cells: bovine retinal pigment epithelium microsome membranes
T1 sequence (Q28175 2-533 limits assumed): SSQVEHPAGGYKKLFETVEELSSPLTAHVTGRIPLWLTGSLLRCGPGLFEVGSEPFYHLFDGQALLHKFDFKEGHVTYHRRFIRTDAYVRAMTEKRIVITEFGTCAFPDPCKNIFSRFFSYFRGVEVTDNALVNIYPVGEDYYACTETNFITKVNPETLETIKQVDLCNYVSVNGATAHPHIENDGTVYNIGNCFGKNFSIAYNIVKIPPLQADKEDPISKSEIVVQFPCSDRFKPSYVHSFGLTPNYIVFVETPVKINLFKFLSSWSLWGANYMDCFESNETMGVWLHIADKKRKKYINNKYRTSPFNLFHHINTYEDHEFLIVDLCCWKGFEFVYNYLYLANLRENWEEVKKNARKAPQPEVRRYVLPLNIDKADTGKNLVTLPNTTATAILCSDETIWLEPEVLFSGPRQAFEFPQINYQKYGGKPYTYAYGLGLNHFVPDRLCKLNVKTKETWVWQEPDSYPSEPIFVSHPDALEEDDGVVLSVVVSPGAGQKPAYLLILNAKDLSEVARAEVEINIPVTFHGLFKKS
Experiment: In vitro isomerase inhibition assay, bovine RPE microsome membranes
Assay type: biochemical
Conditions: bovine RPE microsomes; 11-cis retinol formation
Protocol: The capability of alkynyl phenyl-linked amine derivative compounds to inhibit the activity of a visual cycle isomerase was determined.
Bovine Retinal Pigment Epithelium (RPE) microsome membranes were the source of a visual cycle isomerase.
Crude RPE microsome extracts were thawed in a 37° C. water bath, and then immediately placed on ice. 50 ml crude RPE microsomes were placed into a 50 ml Teflon-glass homogenizer (Fisher Scientific, catalog no. 0841416M) on ice, powered by a hand-held DeWalt drill, and homogenized ten times up and down on ice under maximum speed. This process was repeated until the crude RPE microsome solution was homogenized. The homogenate was then subjected to centrifugation (50.2 Ti rotor (Beckman, Fullerton, Calif.), 13,000 RPM; 15360 Rcf) for 15 minutes at 4° C. The supernatant was collected and subjected to centrifugation at 42,000 RPM (160,000 Rcf; 50.2 Ti rotor) for 1 hour at 4° C. The supernatant was removed, and the pellets were suspended in 12 ml (final volume) cold 10 mM MOPS buffer, pH 7.0. The resuspended RPE membranes in 5 ml aliquots were homogenized in a glass-to-glass homogenizer (Fisher Scientific, catalog no. K885500-0021) to high homogeneity. Protein concentration was quantified using the BCA protein assay according to the manufacturer's protocol (Pierce, Rockford, Ill.). The homogenized RPE preparations were stored at −80° C.
Recombinant human apo cellular retinaldehyde-binding protein (CRALBP) was cloned and expressed according to standard methods in the molecular biology art (see Crabb et al., Protein Science 7:746-57 (1998); Crabb et al., J. Biol. Chem. 263:18688-92 (1988)). Briefly, total RNA was prepared from confluent ARPE19 cells (American Type Culture Collection, Manassas, Va.), cDNA was synthesized using an oligo(dT)12-18 primer, and then DNA encoding CRALBP was amplified by two sequential polymerase chain reactions (see Crabb et al., J. Biol. Chem. 263:18688-92 (1988); Intres, et al., J. Biol. Chem. 269:25411-18 (1994); GenBank Accession No. L34219.1). The PCR product was sub-cloned into pTrcHis2-TOPO TA vector according to the manufacturer's protocol (Invitrogen Inc., Carlsbad, Calif.; catalog no. K4400-01), and then the sequence was confirmed according to standard nucleotide sequencing techniques. Recombinant 6×His-tagged human CRALBP was expressed in One Shot TOP 10 chemically competent E. coli cells (Invitrogen), and the recombinant polypeptide was isolated from E. coli cell lysates by nickel affinity chromatography using nickel (Ni) Sepharose XK16-20 columns for HPLC (Amersham Bioscience, Pittsburgh, Pa.; catalog no. 17-5268-02). The purified 6×His-tagged human CRALBP was dialyzed against 10 mM bis-tris-Propane (BTP) and analyzed by SDS-PAGE. The molecular weight of the recombinant human CRALBP was approximately 39 kDal.
Alkkynyl phenyl-linked amine derivative compounds and control compounds were reconstituted in ethanol to 0.1 M. Ten-fold serial dilutions (10^−2, 10^−3, 10^−4, 10^−5, 10^−6 M) in ethanol of each compound were prepared for analysis in the isomerase assay.
The isomerase assay was performed in 10 mM bis-tris-propane (BTP) buffer, pH 7.5, 0.5% BSA (diluted in BTP buffer), 1 mM sodium pyrophosphate, 20 μM all-trans retinol (in ethanol), and 6 μM apo-CRALBP. The test compounds (2 μl) (final […] dilution of serial dilution stocks) were added to the above reaction mixture to which RPE microsomes were added. The same volume of ethanol was added to the control reaction (absence of test compound). Bovine RPE microsomes (9 μl) (see above) were then added, and the mixtures transferred to 37° C. to initiate the reaction (total volume=150 μl). The reactions were stopped after 30 minutes by adding methanol (300 μl). Heptane was added (300 μl) and mixed into the reaction mixture by pipetting. Retinoid was extracted by agitating the reaction mixtures, followed by centrifugation in a microcentrifuge. […]

SMILES	IC50
COc1ccccc1C#Cc1cccc(C(O)CCN)c1 (stereo not drawn) [Example 54, 3-Amino-1-(3-((2-Methoxyphenyl)Ethynyl)Phenyl)Propan-1-ol]	≤ 1 µM
NCCOc1cccc(C#CC2CCCC2)c1 [Example 79, 2-(3-(Cyclopentylethynyl)phenoxy)-ethanamine]	≤ 1 µM
COc1ccccc1C#Cc1cccc(CCCN)c1 [Example 36, 3-(3-((2-Methoxyphenyl)Ethynyl)Phenyl)Propan-1-Amine]	≤ 1 µM
NCCOc1cccc(C#CC2(O)CCSCC2)c1 [Example 55, 4-((3-(2-Aminoethoxy)Phenyl)Ethynyl)Tetrahydro-2H-Thiopyran-4-ol]	≤ 1 µM
NCCOc1cccc(C#CC2CCCCC2)c1 [Example 80, 2-(3-(Cyclohexylethynyl)phenoxy)ethanamine]	≤ 1 µM
NCCC(O)c1cccc(C#CCCCCO)c1 (stereo not drawn) [Example 50, 6-(3-(3-Amino-1-hydroxypropyl)phenyl)hex-5-yn-1-ol]	≤ 1 µM
NCCCc1cccc(C#CC2(O)CCCCC2)c1 [Example 11, 1-((3-(3-Aminopropyl)phenyl)ethynyl)cyclohexanol]	≤ 1 µM
CC(C)C(O)(C#Cc1cccc(CCCN)c1)C(C)C [Example 32, 1-(3-(3-Aminopropyl)phenyl)-3-isopropyl-4-methylpent-1-yn-3-ol]	≤ 1 µM
CCC(O)(C#Cc1cccc(CCCN)c1)CC [Example 1, 1-(3-(3-Aminopropyl)phenyl)-3-ethylpent-1-yn-3-ol]	≤ 1 µM
CC(C)(C)C(C)(O)C#Cc1cccc(CCCN)c1 (stereo not drawn) [Example 25, 1-(3-(3-Aminopropyl)phenyl)-3,4,4-trimethylpent-1-yn-3-ol]	≤ 1 µM
CCCC(O)(C#Cc1cccc([C@H](O)CCN)c1)CCC [Compound 100, (R)-4-((3-(3-Amino-1-Hydroxypropyl)Phenyl)Ethynyl)Heptan-4-ol]	≤ 1 µM
CC(C)C(O)(C#Cc1cccc(OCCN)c1)C(C)C [Example 28, 1-(3-(2-Aminoethoxy)phenyl)-3-isopropyl-4-methylpent-1-yn-3-ol]	≤ 1 µM
NCCCc1cccc(C#C[C@@H](O)c2ccccc2)c1 [Example 26, (S)-3-(3-(3-Aminopropyl)phenyl)-1-phenylprop-2-yn-1-ol]	≤ 10 µM
NCCCc1cccc(C#CC2CCCC2)c1 [Example 38, 3-(3-(Cyclopentylethynyl)phenyl)propan-1-amine]	≤ 1 µM
CCCC(O)(C#Cc1cccc(CCCN)c1)CCC [Example 2, 4-((3-(3-Aminopropyl)phenyl)ethynyl)heptan-4-ol]	≤ 1 µM
NCCC(O)c1cccc(C#CC2CCCC2)c1 (stereo not drawn) [Example 47, 3-Amino-1-(3-(cyclopentylethynyl)phenyl)propan-1-ol]	≤ 1 µM
NCCC(O)c1cccc(C#CC2CCCCC2)c1 (stereo not drawn) [Example 52, 3-Amino-1-(3-(Cyclohexylethynyl)Phenyl)Propan-1-ol]	≤ 1 µM
NCCOc1cccc(C#CCCCCO)c1 [Example 74, 6-(3-(2-Aminoethoxy)phenyl)hex-5-yn-1-ol]	≤ 1 µM
CCCC(O)C#Cc1cccc(CCCN)c1 (stereo not drawn) [Example 8, 1-(3-(3-Aminopropyl)phenyl)hex-1-yn-3-ol]	≤ 1 µM
NCCCc1cccc(C#Cc2ccccn2)c1 [Example 61, 3-(3-(Pyridin-2-ylethynyl)phenyl)propan-1-amine]	≤ 1 µM

SMILES	IC50
NCCOc1cccc(C#Cc2cccnc2)c1 [Example 62, 2-(3-(Pyridin-3-ylethynyl)phenoxy)ethanamine]	≤ 10 µM
CCCC(O)(C#Cc1cccc(C(O)CCN)c1)CCC (stereo not drawn) [Example 19, 4-((3-(3-Amino-1-hydroxypropyl)phenyl)ethynyl)heptan-4-ol]	≤ 1 µM
NCCCc1cccc(C#Cc2ccccc2)c1 [Example 37, 3-(3-(Phenylethynyl)phenyl)propan-1-amine]	≤ 1 µM
NCCOc1cccc(C#CC2(O)CCCCC2)c1 [Example 57, 1-((3-(2-Aminoethoxy)phenyl)ethynyl)cyclohexanol]	≤ 1 µM
NCCC(O)c1cccc(C#CC2(O)CCCCC2)c1 (stereo not drawn) [Example 99, 1-((3-(3-Amino-1-hydroxypropyl)phenyl)ethynyl)cyclohexanol]	≤ 1 µM
CCCC(O)(C#Cc1cccc([C@@H](O)CCN)c1)CCC [Compound 101, (S)-4-((3-(3-Amino-1-Hydroxypropyl)Phenyl)Ethynyl)Heptan-4-ol]	≤ 1 µM
NCCOc1cccc(C#CC2(O)CCCCCC2)c1 [Example 78, 1-((3-(2-aminoethoxy)phenyl)ethynyl)-cycloheptanol]	≤ 1 µM
NCCC(O)c1cccc(C#CCCc2ccccc2)c1 (stereo not drawn) [Example 69, 3-Amino-1-(3-(4-phenylbut-1-ynyl)phenyl)propan-1-ol]	≤ 1 µM
CC(=O)NCCCc1cccc(C#CC2(O)CCCCC2)c1 [Example 60, N-(3-(3-((1-Hydroxycyclohexyl)Ethynyl)Phenyl)Propyl)Acetamide]	≤ 10 µM
NCCCc1cccc(C#Cc2ccncc2)c1 [Example 63, 3-(3-(Pyridin-4-ylethynyl)phenyl)propan-1-amine]	≤ 10 µM
NCCOc1cccc(C#CC2(O)CCCC2)c1 [Example 31, 1-((3-(2-Aminoethoxy)phenyl)ethynyl)cyclopentanol]	≤ 1 µM
CC(C)(O)C#Cc1cccc(CCCN)c1 [Example 7, 4-(3-(3-Aminopropyl)phenyl)-2-methylbut-3-yn-2-ol]	≤ 1 µM
CCCC(C#Cc1cccc(CCCN)c1)(CCC)OC [Example 4, 3-(3-(3-Methoxy-3-propylhex-1-ynyl)phenyl)propan-1-amine]	≤ 1 µM
NCCOc1cccc(C#Cc2ccccc2)c1 [Example 81, 2-(3-(Phenylethynyl)phenoxy)-ethanamine]	≤ 10 µM
CCCC(O)(C#Cc1cccc(OCCN)c1)CCC [Example 18, 4-((3-(2-Aminoethoxy)phenyl)ethynyl)heptan-4-ol]	≤ 1 µM
CCC(O)(C#Cc1cccc(OCCN)c1)CC [Example 27, 1-(3-(2-Aminoethoxy)phenyl)-3-ethylpent-1-yn-3-ol]	≤ 1 µM
NCCC(O)c1cccc(C#CCCO)c1 (stereo not drawn) [Example 51, 4-(3-(3-Amino-1-hydroxypropyl)phenyl)but-3-yn-1-ol]	≤ 1 µM
NCCC(O)c1cccc(C#CC2(O)CCCCCC2)c1 (stereo not drawn) [Example 59, 1-((3-(3-Amino-1-hydroxypropyl)phenyl)ethynyl)cycloheptanol]	≤ 1 µM
NCCCc1cccc(C#CC2(O)CCCC2)c1 [Example 24, 1-((3-(3-Aminopropyl)phenyl)ethynyl)cyclopentanol]	≤ 1 µM

Source: patent publication US8492589B2, “Alkynyl phenyl derivative compounds for treating ophthalmic diseases and disorders” (Acucela Inc., priority 2007, dated 2013)
